Measurements reported in patent US7462713B2, “Tricyclic compounds protein kinase inhibitors for enhancing the efficacy of anti-neoplastic agents and radiation therapy” (Agouron Pharmaceuticals, Inc., priority 2003, dated 2008).
Where a name gives a salt, the structure may show the parent alone.

The molecules below were run against T1, kinase domain of human CHK-1 (KH289) (Homo sapiens, UniProt O14757) (assay: CHK-1 coupled spectrophotometric enzyme assay (Syntide-2, PK/LDH, NADH oxidation)). Conditions: 10 nM KH289, 0.15 mM ATP, 0.125 mM Syntide-2, pH 7.5.
T1 construct: kinase domain of human CHK-1 (KH289), amino acid residues 1-289; made in house; host or cells: baculovirus (Bac-to-Bac); Hi-S insect cells for protein production, Sf9/Sf21 for virus amplification
T1 sequence (O14757 1-289): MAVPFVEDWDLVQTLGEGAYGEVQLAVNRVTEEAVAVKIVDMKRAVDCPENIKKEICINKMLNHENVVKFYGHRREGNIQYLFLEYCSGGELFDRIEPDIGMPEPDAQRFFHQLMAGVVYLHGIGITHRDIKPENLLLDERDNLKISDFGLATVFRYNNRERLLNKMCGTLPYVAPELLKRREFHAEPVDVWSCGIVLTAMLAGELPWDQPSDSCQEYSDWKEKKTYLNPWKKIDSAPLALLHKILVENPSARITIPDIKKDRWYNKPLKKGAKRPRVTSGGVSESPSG
Type: biochemical
From the text: As previously detailed in European Patent Application No. 1 096 014 A2 (filed Oct. 31, 2000), the C-terminally His-tagged kinase domain of human CHK-1 (KH289), amino acid residues 1-289, can be expressed using the baculovirus/insect cell system. […] The Bac-to-Bac system (Life Technologies) can be used to generate recombinant baculovirus for the expression of KH289 as per instructions. Recombinant viruses can be confirmed by PCR for the presence of CHK-1 cDNA insertion. […] Sf9 insect cells (Invitrogen, Carlsbad, Calif., USA) can be used for initial amplification of recombinant virus stock. High titer stocks of recombinant viruses can be generated by 2 to 3 rounds of amplification using Sf21 insect cells. Hi-S insect cells (Invitrogen, Carlsbad, Calif., USA) can be used for protein production. Both Sf9 and Hi-S cell lines can be adapted to grow in insect medium containing 1% Fetal Bovine Serum (Life Technologies, Grand Island, N.Y., USA). The viral stock was stored at […] and used for large-scale protein production within 2 months to avoid viral instability. For protein production, infected Hi-S cells can be harvested by centrifugation and stored at −80° C. From these cells, 6X-His tagged KH289 (identified by SDS-PAGE) can be obtained after purification and can be flash-frozen in liquid N2 and stored at −80° C.
As previously detailed in European Patent Application No. 1 096 014 A2 (filed Oct. 31, 2000), the enzymatic activity of a kinase can be measured by its ability to catalyze the transfer of a phosphate residue from a nucleoside triphosphate to an amino acid side chain in a selected protein target. The conversion of ATP to ADP generally accompanies the catalytic reaction. Herein, a synthetic substrate peptide, Syntide-2, having amino acid sequence […] can be utilized. The production of ADP from ATP that accompanies phosphoryl transfer to the substrate can be coupled to oxidation of NADH using phosphoenolpyruvate (PEP) through the actions of pyruvate kinase (PK) and lactic dehydrogenase (LDH). The oxidation of NADH can be monitored by following the decrease of absorbance at 340 nm (e340=6.22 cm-1 mM-1) using a HP8452 spectrophotometer. Typical reaction solutions contained: 4 mM PEP, 0.15 mM NADH, 28 units of LDH/mL, 16 units of PK/mL, 3 mM DTT, 0.125 mM Syntide-2, 0.15 mM ATP and 25 mM MgCl2 in 50 mM TRIS pH 7.5; 400 mM NaCl. Assays can be initiated with 10 nM of kinase domain of CHK-1, KH289. Ki values can be determined by measuring initial enzyme activity in the presence of varying concentrations of inhibitors. The data can be analyzed using Enzyme Kinetic and Kaleidagraph software.

| Molecule | Ki [nM] |
| --- | --- |
| O=C1NN=Cc2c[nH]c3cc(OCC4CC4c4ccccc4)cc1c23 (centres unmarked) [Example 275, 8-[(2-phenylcyclopropyl)methoxy]-1,5-dihydro-6H-[1,2]diazepino[4,5,6-cd]indol-6-one] | 7 |
| N[C@H](CCc1ccccc1)C(=O)Nc1cc2c3c(c(Br)[nH]c3c1)C=NNC2=O [Example 259, (2R)-2-Amino-N-(2-bromo-6-oxo-5,6-dihydro-1H-[1,2]diazepino[4,5,6-cd]indol-8-yl)-4-phenyl-butylamide (hydrochloric salt)] | 0.99 |
| (2R)-2-Amino-2-indan-2-yl-N-[2-(1-methyl-1H-imidazol-4-yl)-6-oxo-5,6-dihydro-1H-[1,2]diazepino[4,5,6-cd]indol-8-yl]-acetamide (hydrochloric salt) [Example 272] | 0.2 |
| Cn1cc(-c2[nH]c3cc(NC(=O)[C@H](N)CCc4ccccc4)cc4c3c2C=NNC4=O)cn1 [Example 256, (2R)-2-Amino-N-[2-(1-methyl-1H-pyrazol-4-yl)-6-oxo-5,6-dihydro-1H-[1,2]diazepino[4,5,6-cd]indol-8-yl]-4-phenyl-butylamide (hydrochloric salt)] | 0.78 |
| Cn1cc(-c2[nH]c3cc(NC(=O)[C@H](N)COc4ccccc4)cc4c3c2C=NNC4=O)cn1 [Example 264, (2R)-2-Amino-N-[2-(1-methyl-1H-pyrazol-4-yl)-6-oxo-5,6-dihydro-1H-[1,2]diazepino[4,5,6-cd]indol-8-yl]-3-phenoxy-propionamide (hydrochloric salt)] | 0.48 |
| Cn1cnc(-c2[nH]c3cc(NC(=O)[C@H](N)CCc4ccccc4)cc4c3c2C=NNC4=O)c1 [Example 266, (2R)-2-Amino-N-[2-(1-methyl-1H-imidazol-4-yl)-6-oxo-5,6-dihydro-1H-[1,2]diazepino[4,5,6-cd]indol-8-yl]-4-phenyl-butylamide (hydrochloric salt)] | 0.29 |
| Cn1cc(-c2[nH]c3cc(NC(=O)[C@]4(N)C[C@H]4c4ccccc4)cc4c3c2C=NNC4=O)cn1 [Example 262, (1S,2S)-1-Amino-2-phenyl-cyclopropanecarboxylic acid [2-(1-methyl-1H-Pyrazol-4-yl)-6-oxo-5,6-dihydro-1H-[1,2]diazepino[4,5,6-cd]indol-8-yl]-amide (hydrochloric salt)] | 0.3 |
| Cn1cnc(-c2[nH]c3cc(NC(=O)[C@H](N)C4CCCCC4)cc4c3c2C=NNC4=O)c1 [Example 271, (2R)-2-Amino-2-cyclohexyl-N-[2-(1-methyl-1H-imidazol-4-yl)-6-oxo-5,6-dihydro-1H-[1,2]diazepino[4,5,6-cd]indol-8-yl]-acetamide (hydrochloric salt)] | 1.2 |
| Cc1ccc(-c2[nH]c3cc(NC(=O)[C@H](N)CCc4ccccc4)cc4c3c2C=NNC4=O)cn1 [Example 267, (2R)-2-Amino-N-[2-(6-methyl-pyridin-3-yl)-6-oxo-5,6-dihydro-1H-[1,2]diazepino[4,5,6-cd]indol-8-yl]-4-phenyl-butylamide (hydrochloric salt)] | 0.78 |
| N[C@@H](C(=O)Nc1cc2c3c(c(-c4ccccn4)[nH]c3c1)C=NNC2=O)C1Cc2ccccc2C1 [Example 278, (2R)-2-amino-2-(2,3-dihydro-1H-inden-2-yl)-N-(6-oxo-2-pyridin-2-yl-5,6-dihydro-1H-[1,2]diazepino[4,5,6-cd]indol-8-yl)acetamide (hydrochloric salt)] | 0.47 |

Other lines, results leading:

| Ki [nM] | Molecule |
| --- | --- |
| 0.01 | Cc1cc(-c2[nH]c3cc(NC(=O)[C@H](N)CCc4ccccc4)cc4c3c2C=NNC4=O)on1 [Example 268, (2R)-2-Amino-N-[2-(3-methyl-isoxazol-5-yl)-6-oxo-5,6-dihydro-1H-[1,2]diazepino[4,5,6-cd]indol-8-yl]-4-phenyl-butylamide (hydrochloric salt)] |
| 2 | N[C@H](CCc1ccccc1)C(=O)Nc1cc2c3c(c(Cl)[nH]c3c1)C=NNC2=O [Example 261, (2R)-2-Amino-N-(2-chloro-6-oxo-5,6-dihydro-1H-[1,2]diazepino[4,5,6-cd]indol-8-yl)-4-phenyl-butylamide (hydrochloric salt)] |
| 2 | CN(CC(=O)Nc1cc2c3c(c(-c4cnn(C)c4)[nH]c3c1)C=NNC2=O)Cc1ccccc1 [Example 274, 2-(Benzyl-methyl-amino)-N-[2-(1-methyl-1H-pyrazol-4-yl)-6-oxo-5,6-dihydro-1H-[1,2]diazepino[4,5,6-cd]indol-8-yl]-acetamide] |
| 0.14 | Cn1cc(-c2[nH]c3cc(NC(=O)[C@H](N)C4Cc5ccccc5C4)cc4c3c2C=NNC4=O)cn1 [Example 255, (2R)-2-Amino-2-indan-2-yl-N-[2-(1-methyl-1H-pyrazol-4-yl)-6-oxo-5,6-dihydro-1H-[1,2]diazepino[4,5,6-cd]indol-8-yl]-acetamide (hydrochloric salt)] |
| 0.43 | Cn1cc(-c2[nH]c3cc(NC(=O)[C@H](N)COc4ccc(F)cc4)cc4c3c2C=NNC4=O)cn1 [Example 263, (2R)-2-Amino-3-(4-fluoro-phenoxy)-N-[2-(1-methyl-1H-pyrazol-4-yl)-6-oxo-5,6-dihydro-1H-[1,2]diazepino[4,5,6-cd]indol-8-yl]-propionamide (hydrochloric salt)] |
| 0.79 | Cn1cc(-c2[nH]c3cc(NC(=O)CNCc4ccccc4)cc4c3c2C=NNC4=O)cn1 [Example 270, 2-Benzylamino-N-[2-(1-methyl-1H-pyrazol-4-yl)-6-oxo-5,6-dihydro-1H-[1,2]diazepino[4,5,6-cd]indol-8-yl]-acetamide (hydrochloric salt)] |
| 4.5 | N[C@H](CCc1ccccc1)C(=O)Nc1cc2c3c(c[nH]c3c1)C=NNC2=O [Example 276, (2R)-2-Amino-N-(6-oxo-5,6-dihydro-1H-[1,2]diazepino[4,5,6-cd]indol-8-yl)-4-Phenyl-butylamide (hydrochloric salt)] |
| 0.46 | Cn1cc(-c2[nH]c3cc(NC(=O)[C@H](N)c4ccc(F)cc4)cc4c3c2C=NNC4=O)cn1 [Example 273, (2R)-2-Amino-2-(4-fluoro-phenyl)-N-[2-(1-methyl-1H-pyrazol-4-yl)-6-oxo-5,6-dihydro-1H-[1,2]diazepino[4,5,6-cd]indol-8-yl]-acetamide (hydrochloric salt)] |
| 0.73 | N[C@@H](C(=O)Nc1cc2c3c(c(Cl)[nH]c3c1)C=NNC2=O)C1Cc2ccccc2C1 [Example 265, (2R)-2-Amino-N-(2-chloro-6-oxo-5,6-dihydro-1H-[1,2]diazepino[4,5,6-cd]indol-8-yl)-2-indan-2-yl-acetamide (hydrochloric salt)] |
| 0.55 | N[C@H](CCc1ccccc1)C(=O)Nc1cc2c3c(c(-c4ccccn4)[nH]c3c1)C=NNC2=O [Example 277, (2R)-2-amino-N-(6-oxo-2-pyridin-2-yl-5,6-dihydro-1H-[1,2]diazepino[4,5,6-cd]indol-8-yl)-4-phenylbutanamide] |
| 0.42 | Cc1ccc(-c2[nH]c3cc(NC(=O)[C@H](N)C4Cc5ccccc5C4)cc4c3c2C=NNC4=O)cn1 [Example 260, (2R)-2-Amino-2-indan-2-yl-N-[2-(6-methyl-pyridin-3-yl)-6-oxo-5,6-dihydro-1H-[1,2]diazepino[4,5,6-cd]indol-8-yl]-acetamide (hydrochloric salt)] |
| 0.15 | Cc1cc(-c2[nH]c3cc(NC(=O)[C@H](N)C4Cc5ccccc5C4)cc4c3c2C=NNC4=O)on1 [Example 269, (2R)-2-Amino-2-indan-2-yl-N-[2-(3-methyl-isoxazol-5-yl)-6-oxo-5,6-dihydro-1H-[1,2]diazepino[4,5,6-cd]indol-8-yl]-acetamide] |
| 0.27 | N[C@@H](C(=O)Nc1cc2c3c(c[nH]c3c1)C=NNC2=O)C1Cc2ccccc2C1 [Example 257, (2R)-2-Amino-2-indan-2-yl-N-(6-oxo-5,6-dihydro-1H-[1,2]diazepino[4,5,6-cd]indol-8-yl)-acetamide (hydrochloric salt)] |
